# Species on record: Rattus norvegicus
# Format: toxicity, organism-based, Sprague-Dawley
# Conditions: in vivo, 24 h, time 1 day, vehicle 100 % SALINE; for ABSOLUTE BASOPHIL / ABSOLUTE EOSINOPHIL / ABSOLUTE LYMPHOCYTE / ABSOLUTE MONOCYTE / BASOPHIL / EOSINOPHIL / ERYTHROCYTE COUNT / HEMATOCRIT / HEMOGLOBIN / LEUKOCYTE COUNT / LYMPHOCYTE / MEAN CORPUSCULAR HEMOGLOBIN / MEAN CORPUSCULAR HEMOGLOBIN CONCENTRATION / MEAN CORPUSCULAR VOLUME / MONOCYTE / NEUTROPHIL / PLATELET COUNT / ABSOLUTE SEGMENTED NEUTROPHIL / NUCLEATED RED BLOOD CELLS: tissue Blood; for ALANINE AMINOTRANSFERASE / ALBUMIN / ALKALINE PHOSPHATASE / ASPARTATE AMINOTRANSFERASE / BLOOD UREA NITROGEN / CARBON DIOXIDE / CHLORIDE / CHOLESTEROL / CREATINE PHOSPHOKINASE / CREATININE / GLUCOSE / LACTATE DEHYDROGENASE / LIPASE / PHOSPHORUS / POTASSIUM / SODIUM / TOTAL BILIRUBIN / TOTAL PROTEIN / URIC ACID: tissue Plasma
# [1] = po, 0 mg/kg, vehicle control, route oral GAVAGE, dose level Control
# [2] = po, […], route oral GAVAGE, dose 7.5 mg/Kg, dose level High
# [3] = ip, 0 mg/kg, vehicle control, route intraperitoneal, dose level Control
# [4] = ip, 1 mg/kg, route intraperitoneal, dose level High
# Description: DrugMatrix - Regimen: Single
compound,measurement,setting,value
"Nc1ncnc2c1ncn2[C@@H]1O[C@H](CO)[C@@H](O)[C@H]1F [2'-BETA-FLUORO-2',3'-DEOXYADENOSINE]",ABSOLUTE BASOPHIL,[1],73.3 cells/µL
same,ABSOLUTE EOSINOPHIL,[1],86.7 cells/µL
same,ABSOLUTE LYMPHOCYTE,[1],8400 cells/µL
same,ABSOLUTE MONOCYTE,[1],350 cells/µL
same,BASOPHIL,[1],0.63%
same,EOSINOPHIL,[1],0.73%
same,ERYTHROCYTE COUNT,[1],6.55 x10E6/uL
same,HEMATOCRIT,[1],42.83%
same,HEMOGLOBIN,[1],13.6 G/DL
same,LEUKOCYTE COUNT,[1],11.33 x10E3/uL
same,LYMPHOCYTE,[1],74.77%
same,MEAN CORPUSCULAR HEMOGLOBIN,[1],20.77 pg
same,MEAN CORPUSCULAR HEMOGLOBIN CONCENTRATION,[1],31.7 G/DL
same,MEAN CORPUSCULAR VOLUME,[1],65.53 fL
same,MONOCYTE,[1],3%
same,NEUTROPHIL,[1],20.2%
same,PLATELET COUNT,[1],1394.33 x10E3/uL
same,ALANINE AMINOTRANSFERASE,[1],34 u/L
same,ALBUMIN,[1],4.03 G/DL
same,ALKALINE PHOSPHATASE,[1],345.33 u/L
same,ASPARTATE AMINOTRANSFERASE,[1],69.67 u/L
same,BLOOD UREA NITROGEN,[1],14.33 mg/dL
same,CARBON DIOXIDE,[1],46 mmol/L
same,CHLORIDE,[1],102.67 MEQ/L
same,CHOLESTEROL,[1],85 mg/dL
same,CREATINE PHOSPHOKINASE,[1],292 u/L
same,CREATININE,[1],0.2 mg/dL
same,GLUCOSE,[1],168 mg/dL
same,LACTATE DEHYDROGENASE,[1],114.33 u/L
same,LIPASE,[1],13 u/L
same,PHOSPHORUS,[1],11.2 mg/dL
same,POTASSIUM,[1],7.07 MEQ/L
same,SODIUM,[1],144.67 MEQ/L
same,TOTAL BILIRUBIN,[1],0.27 mg/dL
same,TOTAL PROTEIN,[1],6.57 G/DL
same,URIC ACID,[1],0.73 mg/dL
same,ABSOLUTE BASOPHIL,[2],36.7 cells/µL
same,ABSOLUTE EOSINOPHIL,[2],40 cells/µL
same,ABSOLUTE LYMPHOCYTE,[2],7660 cells/µL
same,ABSOLUTE MONOCYTE,[2],240 cells/µL
same,BASOPHIL,[2],0.37%
same,EOSINOPHIL,[2],0.43%
same,ERYTHROCYTE COUNT,[2],7.06 x10E6/uL
same,HEMATOCRIT,[2],46.1%
same,HEMOGLOBIN,[2],14.4 G/DL
same,LEUKOCYTE COUNT,[2],9.56 x10E3/uL
same,LYMPHOCYTE,[2],79.8%
same,MEAN CORPUSCULAR HEMOGLOBIN,[2],20.4 pg
same,MEAN CORPUSCULAR HEMOGLOBIN CONCENTRATION,[2],31.2 G/DL
same,MEAN CORPUSCULAR VOLUME,[2],65.37 fL
same,MONOCYTE,[2],2.57%
same,NEUTROPHIL,[2],16.23%
same,PLATELET COUNT,[2],1451.67 x10E3/uL
same,ALANINE AMINOTRANSFERASE,[2],40.67 u/L
same,ALBUMIN,[2],4.03 G/DL
same,ALKALINE PHOSPHATASE,[2],348 u/L
same,ASPARTATE AMINOTRANSFERASE,[2],71.67 u/L
same,BLOOD UREA NITROGEN,[2],15 mg/dL
same,CARBON DIOXIDE,[2],42.67 mmol/L
same,CHLORIDE,[2],103.33 MEQ/L
same,CHOLESTEROL,[2],98.67 mg/dL
same,CREATINE PHOSPHOKINASE,[2],439.67 u/L
same,CREATININE,[2],0.3 mg/dL
same,GLUCOSE,[2],185.67 mg/dL
same,LACTATE DEHYDROGENASE,[2],90 u/L
same,LIPASE,[2],12 u/L
same,PHOSPHORUS,[2],11.67 mg/dL
same,POTASSIUM,[2],6.3 MEQ/L
same,SODIUM,[2],146 MEQ/L
same,TOTAL BILIRUBIN,[2],0.27 mg/dL
same,TOTAL PROTEIN,[2],6.7 G/DL
same,URIC ACID,[2],0.97 mg/dL
CC[C@H]1CN2CCc3cc(OC)c(OC)cc3[C@@H]2C[C@@H]1C[C@H]1NCCc2cc(OC)c(OC)cc21 [EMETINE],ABSOLUTE EOSINOPHIL,[3],77.5 CELLS/uL
same,ABSOLUTE LYMPHOCYTE,[3],12568.83 CELLS/uL
same,ABSOLUTE MONOCYTE,[3],704.67 CELLS/uL
same,ABSOLUTE SEGMENTED NEUTROPHIL,[3],2365.67 CELLS/uL
same,BASOPHIL,[3],0%
same,EOSINOPHIL,[3],0.5%
same,ERYTHROCYTE COUNT,[3],5.83 x10E6/uL
same,HEMATOCRIT,[3],36.08%
same,HEMOGLOBIN,[3],13.22 G/DL
same,LEUKOCYTE COUNT,[3],15.72 x10E3/uL
same,LYMPHOCYTE,[3],80%
same,MEAN CORPUSCULAR HEMOGLOBIN,[3],22.68 pg
same,MEAN CORPUSCULAR HEMOGLOBIN CONCENTRATION,[3],36.63 G/DL
same,MEAN CORPUSCULAR VOLUME,[3],61.88 fL
same,MONOCYTE,[3],4.5%
same,NEUTROPHIL,[3],15%
same,NUCLEATED RED BLOOD CELLS,[3],0 /100WBC
same,PLATELET COUNT,[3],1020.5 x10E3/uL
same,ALANINE AMINOTRANSFERASE,[3],43.33 u/L
same,ALKALINE PHOSPHATASE,[3],368 u/L
same,ASPARTATE AMINOTRANSFERASE,[3],93 u/L
same,BLOOD UREA NITROGEN,[3],12.33 mg/dL
same,CARBON DIOXIDE,[3],27.17 mmol/L
same,CHLORIDE,[3],99.5 MEQ/L
same,CHOLESTEROL,[3],65.67 mg/dL
same,CREATININE,[3],0.23 mg/dL
same,GLUCOSE,[3],181.67 mg/dL
same,LACTATE DEHYDROGENASE,[3],380.17 u/L
same,LIPASE,[3],9.33 u/L
same,PHOSPHORUS,[3],13.1 mg/dL
same,POTASSIUM,[3],6.28 MEQ/L
same,SODIUM,[3],143.03 MEQ/L
same,TOTAL BILIRUBIN,[3],0.18 mg/dL
same,TOTAL PROTEIN,[3],6.12 G/DL
same,URIC ACID,[3],2.47 mg/dL
same,ABSOLUTE EOSINOPHIL,[4],92 CELLS/uL
same,ABSOLUTE LYMPHOCYTE,[4],11430 CELLS/uL
same,ABSOLUTE MONOCYTE,[4],510 CELLS/uL
same,ABSOLUTE SEGMENTED NEUTROPHIL,[4],1901.33 CELLS/uL
same,BASOPHIL,[4],0%
same,EOSINOPHIL,[4],0.67%
same,ERYTHROCYTE COUNT,[4],5.8 x10E6/uL
same,HEMATOCRIT,[4],35.23%
same,HEMOGLOBIN,[4],12.63 G/DL
same,LEUKOCYTE COUNT,[4],13.93 x10E3/uL
same,LYMPHOCYTE,[4],82%
same,MEAN CORPUSCULAR HEMOGLOBIN,[4],21.77 pg
same,MEAN CORPUSCULAR HEMOGLOBIN CONCENTRATION,[4],35.87 G/DL
same,MEAN CORPUSCULAR VOLUME,[4],60.83 fL
same,MONOCYTE,[4],3.67%
same,NEUTROPHIL,[4],13.67%
same,NUCLEATED RED BLOOD CELLS,[4],0 /100WBC
same,PLATELET COUNT,[4],1110.67 x10E3/uL
same,ALANINE AMINOTRANSFERASE,[4],45.67 u/L
same,ALKALINE PHOSPHATASE,[4],344 u/L
same,ASPARTATE AMINOTRANSFERASE,[4],124 u/L
same,BLOOD UREA NITROGEN,[4],13.33 mg/dL
same,CARBON DIOXIDE,[4],27 mmol/L
same,CHLORIDE,[4],100 MEQ/L
same,CHOLESTEROL,[4],66.67 mg/dL
same,CREATININE,[4],0.22 mg/dL
same,GLUCOSE,[4],182 mg/dL
same,LACTATE DEHYDROGENASE,[4],467.33 u/L
same,LIPASE,[4],9.33 u/L
same,PHOSPHORUS,[4],14.17 mg/dL
same,POTASSIUM,[4],6.56 MEQ/L
same,SODIUM,[4],143.9 MEQ/L
same,TOTAL BILIRUBIN,[4],0.17 mg/dL
same,TOTAL PROTEIN,[4],6.07 G/DL
same,URIC ACID,[4],2.17 mg/dL
